Where “and” joins values, the source holds several entries; their conditions need not be identical. Equal values may be shown once. ± gives the expanded uncertainty stated by the source.
Settings: 283.15 K, Liquid, Vibrating tube method

CCCCCC(=O)OCC(COC(=O)CCCCC)(COC(=O)CCCCC)COC(=O)CCCCC [pentaerythritol tetrahexanoate]
Settings | mass density
147.5 kPa | 1004.2 ± 1.2 kg/m3
147.8 kPa | 1004.2 ± 1.2 kg/m3
148.2 kPa | 1004.2 ± 1.2 kg/m3
148.7 kPa | 1004.3 ± 1.2 kg/m3
150.5 kPa | 1004.1 ± 1.2 kg/m3
150.8 kPa | 1004.2 ± 1.2 kg/m3
151.3 kPa | 1004.3 ± 1.2 kg/m3
151.5 kPa | 1004.3 ± 1.2 kg/m3
151.7 kPa | 1004.3 ± 1.2 kg/m3
152.4 kPa | 1004.2 ± 1.2 kg/m3
152.7 kPa | 1004.2 ± 1.2 kg/m3
153.2 kPa | 1004.2 ± 1.2 kg/m3
153.4 kPa | 1004.2 ± 1.2 kg/m3
153.7 kPa | 1004.4 ± 1.2 kg/m3
154.1 kPa | 1004.3 ± 1.2 kg/m3
154.3 kPa | 1004.2 ± 1.2 kg/m3
154.6 kPa | 1004.1 ± 1.2 kg/m3 and 1004.2 ± 1.2 kg/m3
155.1 kPa | 1004.3 ± 1.2 kg/m3
155.7 kPa | 1004.2 ± 1.2 kg/m3
156.4 kPa | 1004.2 ± 1.2 kg/m3
156.5 kPa | 1004.1 ± 1.2 kg/m3 and 1004.2 ± 1.2 kg/m3
157.2 kPa | 1004.3 ± 1.2 kg/m3
157.6 kPa | 1004.2 ± 1.2 kg/m3
157.7 kPa | 1004.2 ± 1.2 kg/m3
157.9 kPa | 1004.3 ± 1.2 kg/m3
160.5 kPa | 1004.2 ± 1.2 kg/m3
161 kPa | 1004.2 ± 1.2 kg/m3
161.4 kPa | 1004.2 ± 1.2 kg/m3
161.6 kPa | 1004.3 ± 1.2 kg/m3
162.3 kPa | 1004.3 ± 1.2 kg/m3
162.4 kPa | 1004.1 ± 1.2 kg/m3
163 kPa | 1004.2 ± 1.2 kg/m3
163.1 kPa | 1004.3 ± 1.2 kg/m3
163.8 kPa | 1004.3 ± 1.2 kg/m3
164.2 kPa | 1004.3 ± 1.2 kg/m3
164.5 kPa | 1004.2 ± 1.2 kg/m3
164.7 kPa | 1004.3 ± 1.2 kg/m3
165.2 kPa | 1004.2 ± 1.2 kg/m3
165.7 kPa | 1004.3 ± 1.2 kg/m3
166.4 kPa | 1004.1 ± 1.2 kg/m3
166.8 kPa | 1004.3 ± 1.2 kg/m3
166.9 kPa | 1004.3 ± 1.2 kg/m3
167.5 kPa | 1004.2 ± 1.2 kg/m3
168.2 kPa | 1004.2 ± 1.2 kg/m3
169.7 kPa | 1004.2 ± 1.2 kg/m3
173.5 kPa | 1004.2 ± 1.2 kg/m3
174.1 kPa | 1004.2 ± 1.2 kg/m3
174.8 kPa | 1004.1 ± 1.2 kg/m3
175.1 kPa | 1004.3 ± 1.2 kg/m3
175.4 kPa | 1004.2 ± 1.2 kg/m3
177 kPa | 1004.2 ± 1.2 kg/m3
177.9 kPa | 1004.2 ± 1.2 kg/m3
178 kPa | 1004.2 ± 1.2 kg/m3
178.4 kPa | 1004.1 ± 1.2 kg/m3
178.9 kPa | 1004.2 ± 1.2 kg/m3
179.4 kPa | 1004.2 ± 1.2 kg/m3
179.6 kPa | 1004.2 ± 1.2 kg/m3
179.8 kPa | 1004.2 ± 1.2 kg/m3
180.3 kPa | 1004.3 ± 1.2 kg/m3
181 kPa | 1004.2 ± 1.2 kg/m3
181.4 kPa | 1004.2 ± 1.2 kg/m3
181.9 kPa | 1004.3 ± 1.2 kg/m3
182.2 kPa | 1004.2 ± 1.2 kg/m3
182.9 kPa | 1004.3 ± 1.2 kg/m3
184.1 kPa | 1004.3 ± 1.2 kg/m3
185 kPa | 1004.3 ± 1.2 kg/m3
185.3 kPa | 1004.2 ± 1.2 kg/m3
185.7 kPa | 1004.2 ± 1.2 kg/m3
186 kPa | 1004.3 ± 1.2 kg/m3
186.4 kPa | 1004.2 ± 1.2 kg/m3
187.1 kPa | 1004.2 ± 1.2 kg/m3
187.6 kPa | 1004.3 ± 1.2 kg/m3
188.3 kPa | 1004.3 ± 1.2 kg/m3
188.6 kPa | 1004.2 ± 1.2 kg/m3
188.8 kPa | 1004.1 ± 1.2 kg/m3
189.2 kPa | 1004.2 ± 1.2 kg/m3
189.5 kPa | 1004.3 ± 1.2 kg/m3
189.9 kPa | 1004.3 ± 1.2 kg/m3
190.2 kPa | 1004.1 ± 1.2 kg/m3
190.5 kPa | 1004.3 ± 1.2 kg/m3
190.7 kPa | 1004.2 ± 1.2 kg/m3
191.4 kPa | 1004.2 ± 1.2 kg/m3
191.9 kPa | 1004.3 ± 1.2 kg/m3
192.3 kPa | 1004.3 ± 1.2 kg/m3 and 1004.2 ± 1.2 kg/m3
192.6 kPa | 1004.4 ± 1.2 kg/m3
192.8 kPa | 1004.2 ± 1.2 kg/m3
193.1 kPa | 1004.2 ± 1.2 kg/m3
193.3 kPa | 1004.2 ± 1.2 kg/m3
193.8 kPa | 1004.2 ± 1.2 kg/m3
194.4 kPa | 1004.2 ± 1.2 kg/m3
194.7 kPa | 1004.3 ± 1.2 kg/m3
195.1 kPa | 1004.3 ± 1.2 kg/m3
195.2 kPa | 1004.2 ± 1.2 kg/m3
195.8 kPa | 1004.2 ± 1.2 kg/m3
195.9 kPa | 1004.2 ± 1.2 kg/m3
196.3 kPa | 1004.3 ± 1.2 kg/m3
196.8 kPa | 1004.3 ± 1.2 kg/m3
197.1 kPa | 1004.2 ± 1.2 kg/m3
197.3 kPa | 1004.2 ± 1.2 kg/m3
197.5 kPa | 1004.1 ± 1.2 kg/m3
197.8 kPa | 1004.3 ± 1.2 kg/m3
198.2 kPa | 1004.2 ± 1.2 kg/m3
198.7 kPa | 1004.3 ± 1.2 kg/m3
198.9 kPa | 1004.3 ± 1.2 kg/m3
199.2 kPa | 1004.2 ± 1.2 kg/m3
199.6 kPa | 1004.4 ± 1.2 kg/m3
200.3 kPa | 1004.3 ± 1.2 kg/m3
200.8 kPa | 1004.1 ± 1.2 kg/m3 and 1004.3 ± 1.2 kg/m3
201 kPa | 1004.2 ± 1.2 kg/m3
201.5 kPa | 1004.1 ± 1.2 kg/m3
202 kPa | 1004.3 ± 1.2 kg/m3
202.2 kPa | 1004.4 ± 1.2 kg/m3
202.5 kPa | 1004.2 ± 1.2 kg/m3
202.7 kPa | 1004.1 ± 1.2 kg/m3
203.2 kPa | 1004.3 ± 1.2 kg/m3
204.1 kPa | 1004.1 ± 1.2 kg/m3
204.3 kPa | 1004.2 ± 1.2 kg/m3
204.6 kPa | 1004.2 ± 1.2 kg/m3
205.1 kPa | 1004.2 ± 1.2 kg/m3
205.7 kPa | 1004.2 ± 1.2 kg/m3
205.8 kPa | 1004.2 ± 1.2 kg/m3
206.5 kPa | 1004.3 ± 1.2 kg/m3 and 1004.2 ± 1.2 kg/m3
207 kPa | 1004.1 ± 1.2 kg/m3
208.6 kPa | 1004.2 ± 1.2 kg/m3
208.8 kPa | 1004.3 ± 1.2 kg/m3
209.3 kPa | 1004.2 ± 1.2 kg/m3
209.6 kPa | 1004.2 ± 1.2 kg/m3
210 kPa | 1004.2 ± 1.2 kg/m3
210.5 kPa | 1004.3 ± 1.3 kg/m3
211 kPa | 1004.2 ± 1.2 kg/m3
211.6 kPa | 1004.3 ± 1.2 kg/m3
212.1 kPa | 1004.2 ± 1.2 kg/m3
212.4 kPa | 1004.3 ± 1.2 kg/m3
212.8 kPa | 1004.3 ± 1.2 kg/m3
212.9 kPa | 1004.2 ± 1.2 kg/m3
213.5 kPa | 1004.3 ± 1.2 kg/m3
213.8 kPa | 1004.2 ± 1.2 kg/m3
214.5 kPa | 1004.3 ± 1.2 kg/m3
215.2 kPa | 1004.3 ± 1.2 kg/m3
215.7 kPa | 1004.2 ± 1.2 kg/m3
216.2 kPa | 1004.3 ± 1.2 kg/m3
216.8 kPa | 1004.2 ± 1.2 kg/m3
217.5 kPa | 1004.2 ± 1.2 kg/m3
219 kPa | 1004.1 ± 1.2 kg/m3
219.4 kPa | 1004.3 ± 1.2 kg/m3
